One data set concerns HCV replicon. Description: microbe, parasite or virus in culture. It is filed as cell-based. The conditions noted are these: Hepatitis C virus, 48 h.

Like-named read-outs stand apart in the source and are kept apart here.

In the case of `CCOC(=O)Nc1ccc(-c2c(C#N)c3ccc(OC)cc3n2CCOC)cc1` [Compound 676], the melting point (usually the temperature of the solid-liquid transition) fell in the range of 174 to 175 °C. Further, the IC50 in the data set with HCV replicon (read-out: Replicon IC5Os) fell in the range of 0.5 to 2 µM.
On the same counts, the results for `CCCOC(=O)Nc1ccc(-c2c(C#N)c3ccc(OC)cc3n2CCOC)cc1` [Compound 677] are 133 to 134 °C and 0.5 to 2 µM.
On the same counts, the results for `CCNC(=O)N1CCc2cc(-c3c(C#N)c4ccc(OC)cc4n3CC)ccc21` [Compound 679] are 212 to 220 °C and 0.5 to 2 µM.
On the same counts, the results for `CCCNC(=O)N1CCc2cc(-c3c(C#N)c4ccc(OC)cc4n3CC)ccc21` [Compound 680] are 163 to 168 °C and less than 0.5 µM.
The molecule `CCn1c(-c2ccc3c(c2)CCN3C(=O)NC(C)C)c(C#N)c2ccc(OC)cc21` [Compound 681] registered a melting point of 192 to 197 °C. The IC50 in the data set on HCV replicon (read-out: Replicon IC5Os) fell in the range of 0.5 to 2 µM.
Molecule `CCOc1ccc2c(C#N)c(-c3ccc(N(C)S(C)(=O)=O)cc3)n(C3CCC3)c2c1` [Compound 690] displayed a melting point of 192 to 193 °C. Further, in the data set with HCV replicon (read-out: Replicon IC5Os), the IC50 fell in the range of 0.5 to 2 µM.
In the same order, the values of `CCOc1ccc2c(C#N)c(-c3ccc(N(C)S(=O)(=O)CC)cc3)n(C)c2c1` [Compound 692] are 175 to 176 °C and 0.5 to 2 µM.
In the same order, the values of `CCOc1ccc2c(C#N)c(-c3ccc(N(C)S(=O)(=O)CC)cc3)n(CC)c2c1` [Compound 693] are 163 to 164 °C and less than 0.5 µM.
On the same counts, the results for `CCn1c(-c2ccc(N3CCCS3(=O)=O)cc2)c(C#N)c2ccc(OCCF)cc21` [Compound 699] are 255 to 258 °C and less than 0.5 µM.
As for `CCn1c(-c2ccc3c(c2)CCN3S(C)(=O)=O)c(C#N)c2ccc(OC)cc21` [Compound 701], the melting point lay within 188 to 194 °C. Further, the IC50 in the data set on HCV replicon (read-out: Replicon IC5Os) was in the range of 0.5 to 2 µM.
On the same counts, the results for `CCn1c(-c2ccc3c(c2)CCN3S(=O)(=O)CC)c(C#N)c2ccc(OC)cc21` [Compound 702] are 147 to 150 °C and 0.5 to 2 µM.
On the same counts, the results for `CCCCn1c(-c2ccc(NS(=O)(=O)CC)cc2)c(C#N)c2ccc(OC)cc21` [Compound 707] are 159 to 161 °C and 0.5 to 2 µM.
On the same counts, the results for `CCCCn1c(-c2ccc(NS(=O)(=O)C3CC3)cc2)c(C#N)c2ccc(OC)cc21` [Compound 709] are 166 to 168 °C and less than 0.5 µM.
`CCCn1c(-c2ccc(NS(=O)(=O)CC)cc2)c(C#N)c2cc(OCc3ccccc3)ccc21` [Compound 713] had a melting point of 199 to 202 °C. Also, in the data set with HCV replicon (read-out: Replicon IC5Os), the IC50 is 0.5 to 2 µM.
In the same order, the values of `COc1ccc2c(C#N)c(-c3ccc(N4CCCS4(=O)=O)cc3)n(CC(C)C)c2c1` [Compound 717] are 205 to 207 °C and 0.5 to 2 µM.
On the same counts, the results for `COc1ccc2c(C#N)c(-c3cccc(NS(C)(=O)=O)c3)n(C3CCCC3)c2c1` [Compound 720] are 172 to 178 °C and 0.5 to 2 µM.
In the same order, the values of `COc1ccc2c(C#N)c(-c3cccc(NC(=O)OC(C)C)c3)n(C3CCCC3)c2c1` [Compound 723] are 175 to 180 °C and 0.5 to 2 µM.
For the molecule `CCn1c(-c2ccc(N3CCN(Cc4ccccc4)S3(=O)=O)cc2)c(C#N)c2ccc(OC)cc21` [Compound 727], the melting point was 217 to 218 °C. Further, the IC50 with HCV replicon (read-out: Replicon IC5Os) was in the range of 0.5 to 2 µM.
On the same counts, the results for `CCn1c(-c2ccc(N3CCCC3=O)cc2)c(C#N)c2ccc(OC(C)C)cc21` [Compound 731] are 173 to 174 °C and less than 0.5 µM.
On the same counts, the results for `COc1ccc2c(C#N)c(-c3ccc(N4CCCC4=O)cc3)n(CCF)c2c1` [Compound 732] are 219 to 221 °C and 0.5 to 2 µM.
On the same counts, the results for `COC(=O)Nc1ccc(-c2c(C#N)c3ccc(OC(F)F)cc3n2CC2CC2)cc1` [Compound 734] are 167 to 169 °C and 0.5 to 2 µM.
With `CCOC(=O)Nc1ccc(-c2c(C#N)c3ccc(OC(F)F)cc3n2CC2CC2)cc1` [Compound 735], the melting point is 123 to 125 °C. Also, in the data set on HCV replicon (read-out: Replicon IC5Os), the IC50 is less than 0.5 µM.
In the same order, the values of `CC(C)OC(=O)Nc1ccc(-c2c(C#N)c3ccc(OC(F)F)cc3n2CC2CC2)cc1` [Compound 737] are 153 to 155 °C and 0.5 to 2 µM.
In the same order, the values of `N#Cc1c(-c2ccc(NC(=O)OCCF)cc2)n(CC2CC2)c2cc(OC(F)F)ccc12` [Compound 738] are 149 to 151 °C and less than 0.5 µM.
`CCCNC(=O)Nc1ccc(-c2c(C#N)c3ccc(OC(F)F)cc3n2CC2CC2)cc1` [Compound 741]: the melting point lay within 194 to 196 °C. The IC50 in the data set with HCV replicon (read-out: Replicon IC5Os) is less than 0.5 µM.
In the same order, the values of `CCCCNC(=O)Nc1ccc(-c2c(C#N)c3ccc(OC(F)F)cc3n2CC2CC2)cc1` [Compound 742] are 171 to 173 °C and 0.5 to 2 µM.
On the same counts, the results for `N#Cc1c(-c2ccc(NC(=O)NC3CCCC3)cc2)n(CC2CC2)c2cc(OC(F)F)ccc12` [Compound 743] are 129 °C and less than 0.5 µM.
In the same order, the values of `COC(=O)Nc1cccc(-c2c(C#N)c3ccc(OC(F)F)cc3n2CC2CC2)c1` [Compound 744] are 92 to 93 °C and less than 0.5 µM.
`CCCCn1c(-c2ccc(NC(=O)OCCF)cc2)c(C#N)c2ccc(OC)cc21` [Compound 747]: the melting point lay in the range of 136 to 137 °C. Also, the IC50 with HCV replicon (read-out: Replicon IC5Os) is less than 0.5 µM.
On the same counts, the results for `CCCCn1c(-c2ccc(NC(=O)NCC)cc2)c(C#N)c2ccc(OC)cc21` [Compound 748] are 186 to 188 °C and less than 0.5 µM.
On the same counts, the results for `CCCCn1c(-c2ccc(NC(=O)NCCC)cc2)c(C#N)c2ccc(OC)cc21` [Compound 749] are 176 to 178 °C and less than 0.5 µM.
In the same order, the values of `CCCCNC(=O)Nc1ccc(-c2c(C#N)c3ccc(OC)cc3n2CCCC)cc1` [Compound 750] are 173 to 174 °C and less than 0.5 µM.
Consider `CCCCn1c(-c2ccc(NC(=O)NC(C)C)cc2)c(C#N)c2ccc(OC)cc21` [Compound 751], for which the melting point fell in the range of 159 to 162 °C. Further, the IC50 with HCV replicon (read-out: Replicon IC5Os) lay within 0.5 to 2 µM.
`CCn1c(-c2ccc3c(c2)N(S(C)(=O)=O)CC3)c(C#N)c2ccc(OC)cc21` [Compound 752] showed a melting point of 198 to 202 °C. Further, the IC50 with HCV replicon (read-out: Replicon IC5Os) is 0.5 to 2 µM.
The molecule `CCn1c(-c2ccc3c(c2)N(S(=O)(=O)CC)CC3)c(C#N)c2ccc(OC)cc21` [Compound 753, 1′-ethanesulfonyl-1-ethyl-6-methoxy-2′,3′-dihydro-1H,1H′-[2,6′]biindolyl-3-carbonitrile] registered a melting point of 157 to 161 °C. Further, the IC50 in the data set with HCV replicon (read-out: Replicon IC5Os) is less than 0.5 µM.
In the same order, the values of `CCn1c(-c2ccc(N)cc2)c(C#N)c2ccc(OC(C)C)cc21` [Compound 758] are 149 to 153 °C and less than 0.5 µM.
In the case of `CCn1c(-c2ccc(NC(=O)CCc3ccccc3)cc2)c(C#N)c2ccc(OC(C)C)cc21` [Compound 762], the melting point is 190 to 193 °C. The IC50 in the data set on HCV replicon (read-out: Replicon IC5Os) is less than 0.5 µM.
In the same order, the values of `CCn1c(-c2ccc(NC(=O)c3ccccc3)cc2)c(C#N)c2ccc(OC(C)C)cc21` [Compound 763] are 209.2 to 209.7 °C and less than 0.5 µM.
The molecule `CCn1c(-c2ccc(NC(=O)c3ccc(F)cc3)cc2)c(C#N)c2ccc(OC(C)C)cc21` [Compound 764] returned a melting point of 213.5 to 231.7 °C. Moreover, the IC50 with HCV replicon (read-out: Replicon IC5Os μM) is less than 0.5 µM.
Turning to `CCOc1ccc2c(C#N)c(-c3ccc(NC(=O)NCCCl)cc3)n(CC)c2c1` [Compound 774], the melting point lay within 205 to 206 °C. Also, in the data set on HCV replicon (read-out: Replicon IC5Os μM), the IC50 is 0.5 to 2 µM.
`COc1ccc2c(C#N)c(-c3cccc(N4CCCS4(=O)=O)c3)n(C(C)C)c2c1` [Compound 784]: the melting point was 245 to 246 °C. In addition, the IC50 with HCV replicon (read-out: Replicon IC5Os μM) lay in the range of 0.5 to 2 µM.
On the same counts, the results for `CCCS(=O)(=O)Nc1ccc(-c2c(C#N)c3cc(OC)ccc3n2CC)cc1` [Compound 789] are 154 to 156 °C and less than 0.5 µM.
On the same counts, the results for `CCn1c(-c2ccc(NS(=O)(=O)C3CC3)cc2)c(C#N)c2cc(OC)ccc21` [Compound 791] are 149 to 152 °C and less than 0.5 µM.
In the same order, the values of `CCn1c(-c2ccc(NC(=O)OC)cc2)c(C#N)c2cc(OC)ccc21` [Compound 792] are 182 to 185 °C and less than 0.5 µM.
With `CCOC(=O)Nc1ccc(-c2c(C#N)c3cc(OC)ccc3n2CC)cc1` [Compound 793], the melting point lay in the range of 154 to 155 °C. Moreover, the IC50 in the data set on HCV replicon (read-out: Replicon IC5Os μM) is less than 0.5 µM.
On the same counts, the results for `CCCOC(=O)Nc1ccc(-c2c(C#N)c3cc(OC)ccc3n2CC)cc1` [Compound 794] are 149 to 151 °C and less than 0.5 µM.
On the same counts, the results for `CCn1c(-c2ccc(NC(=O)OC(C)C)cc2)c(C#N)c2cc(OC)ccc21` [Compound 795] are 183 to 185 °C and less than 0.5 µM.
On the same counts, the results for `CCn1c(-c2ccc(NC(=O)C3CCC3)cc2)c(C#N)c2ccc(OC)cc21` [Compound 801] are 199 to 219 °C and less than 0.5 µM.
As for `CCn1c(-c2ccc(NC(=O)Cc3ccccc3)cc2)c(C#N)c2ccc(OC)cc21` [Compound 802], the melting point lay within 196 to 198 °C. In the data set with HCV replicon (read-out: Replicon IC5Os μM), the IC50 is 0.5 to 2 µM.
On the same counts, the results for `CCn1c(-c2ccc(N3CCCC3=O)cc2)c(C#N)c2ccc(OC(F)F)cc21` [Compound 807] are 171 to 172 °C and less than 0.5 µM.
`C=CCNC(=O)Nc1cccc(-c2c(C#N)c3ccc(OC)cc3n2Cc2ccccc2)c1` [Compound 818]: the melting point is 158 to 159 °C. In addition, in the data set with HCV replicon (read-out: Replicon IC5Os μM), the IC50 was less than 0.5 µM.
In the same order, the values of `CC(C)OC(=O)Nc1ccc(-c2c(C#N)c3ccc(OC(F)F)cc3n2C2CCC2)cc1` [Compound 822] are 144 to 145 °C and 0.5 to 2 µM.

These data come from patent publication US8013006B2.
